The values that follow come from patent US20080140036A1, “Antimicrobial Composition” (priority 2004, published 2008).

One data set deals with Candida Albicans. The data set can be described thus: Franz cell bioassay, infected stratum corneum sheet, ATP assay. It counts as cell-based. To be noted: after 2 hours incubation, FIG. 6. As to the method:
The concentration of organisms in suspension was determined by fluorescence technique and a viable count used for confirmation by conducting an ATP assay where ATP in cell lysate represents a measure for viable cells. Therefore, the number of viable cells after exposure to drug can be measured for drug activity and was used for suspension method or skin model.
Stratum corneum (SC) sheets were infected with microorganisms in-vitro and a Franz cell was set-up to provide more realistic conditions than agar plate test
A sample of Candida albicans (5×10^7) was dried on the stratum corneum sheet and PBS used as receiver fluid. The Micap formulations were used at 10% aqueous suspensions and the Micap formulations and Pevaryl® were applied to the stratum corneum sheet and incubated at 37° C. The reaction was stopped after set time by dismantling the Franz cell and transferring the stratum corneum into TCA. ATP assay was then carried out on the cell lysate to determine activity.
In turn, `CCO` [20% ethanol, ethanol] yielded an ATP remaining of 75%.

Test system in the next data set: not given
Test: not given
To be noted: cited from earlier work.
As for `CC/C=C\CCOC(C)=O` [(Z)-3-hexenyl acetate], the “logP(o/w)” value is 1.5.
Consider `CCCCCCCCC(=O)OCC` [ethyl nonanoate], for which the “logP(o/w)” value was 3.7.
Take `CC(C)=CC(=O)OCCc1ccccc1` [2-phenylethyl 3-methyl-2-butenoate]: the “logP(o/w)” value is 2.7.
`COC(=O)CCCCC(=O)OC` [Dimethyl adipate]: the “logP(o/w)” value is 1.4.
As for `CCCCCCCCC` [Nonane], the “logP(o/w)” value was 4.8.
On to `CCCCCCCCOC(C)=O` [octyl acetate], for which the “logP(o/w)” value is listed as 3.3.
Regarding `CC/C=C\CCOC(=O)CCC` [(Z)-3-hexenyl butanoate], the “logP(o/w)” value is listed as 2.4.
Consider `Fc1cc(F)cc(F)c1` [1,3,5-Trifluorobenzene], for which the “logP(o/w)” value is on record as 2.6.
For `CCCCCCCCCCCCCC` [Tetradecane], the “logP(o/w)” value was 7.2.
In the case of `C=CC(C)(CCC=C(C)C)OC(=O)CCCCC` (centres unmarked) [1,5-dimethyl-1-vinyl-4-hexenyl hexanoate], the “logP(o/w)” value is 4.5.
With `CCCSSCCC` [dipropyl disulfide], the “logP(o/w)” value is recorded as 3.7.
Turning to `Cc1cccc(I)c1` [3-Iodotoluene], the “logP(o/w)” value is reported as 3.7.
For the compound `CCCCCCCCO` [octanol], the “logP(o/w)” value is on record as 2.8.
In the case of `CCCCCCCO` [Micap 1-Heptanol, 1-Heptanol], the “logP(o/w)” value was 3.1.
Consider `CC(C)c1ccccc1O` [2-isopropyl phenol], for which the “logP(o/w)” value is on record as 2.7.
With `CCc1ccc(O)c(OC)c1` [4-ethyl-2-methoxy phenol], the “logP(o/w)” value was 2.4.
On to `CC(C)CCN` [3-methyl butylamine], for which the “logP(o/w)” value is recorded as 1.1.
As for `CCCCCCCCOC(=O)C(C)C` [octyl isobutyrate], the “logP(o/w)” value is reported as 4.2.
Consider `CCCCCCCCCC` [Decane], for which the “logP(o/w)” value was 5.3.
With `CCCCCC(C)=O` [heptan-2-one], the “logP(o/w)” value is listed as 1.9.
As for `CC/C=C/CC(=O)OCC` [ethyl (E)-3-hexenoate], the “logP(o/w)” value is on record as 1.7.
Consider `CCCCCCCCN1CCCC1=O` [1-octyl-2-pyrrolidinone], for which the “logP(o/w)” value is recorded as 3.3.
In the case of `CCOC(=O)CC(C)C` [ethyl 3-methylbutanoate], the “logP(o/w)” value is listed as 1.8.
`CCCCC(C)C(=O)O` (centres unmarked) [2-methyl hexanoic acid]: the “logP(o/w)” value was 2.1.
For the compound `CCCCCCCC1CCCC(=O)O1` (racemic) [(+−)-5-dodecanolide], the “logP(o/w)” value is given as 4.0.
Consider `CC(=O)OCC(COC(C)=O)OC(C)=O` [triacetin], for which the “logP(o/w)” value is on record as 0.4.
Turning to `CCCCCCC(C)=O` [octan-2-one], the “logP(o/w)” value was 2.3.
In the case of `CC/C=C\CCOC(=O)C(C)CC` (centres unmarked) [(Z)-3-hexenyl 2-methylbutanoate], the “logP(o/w)” value is given as 2.8.
Regarding `CCCCCC1CCCC(=O)O1` (centres unmarked) [Micap 5-decanolide, 5-decanolide], the “logP(o/w)” value is reported as 3.1.
As to `CCCCCC(=O)OCC` [ethyl hexanoate], the “logP(o/w)” value is listed as 2.3.
As to `Fc1cccc(F)c1` [1,3-Difluorobenzene], the “logP(o/w)” value is on record as 2.4.
